“Also recorded” adds a separate entry of the source. Structures can show the parent of a compound that is named as a salt.
Columns and labels:
AR = target: T1, AR (Homo sapiens, UniProt P10275, T878A); assay: AR protein in harvested LNCaP xenografts (IHC, western blot); format: in vivo, mice; set-up: LNCaP human prostate cancer cells express endogenous androgen receptor (AR); from tissue; host or cells: LNCaP xenografts harvested from castrated NOD-SCID mice; settings: I.V. or I.T delivery
T1 sequence (P10275 1-920 T878A): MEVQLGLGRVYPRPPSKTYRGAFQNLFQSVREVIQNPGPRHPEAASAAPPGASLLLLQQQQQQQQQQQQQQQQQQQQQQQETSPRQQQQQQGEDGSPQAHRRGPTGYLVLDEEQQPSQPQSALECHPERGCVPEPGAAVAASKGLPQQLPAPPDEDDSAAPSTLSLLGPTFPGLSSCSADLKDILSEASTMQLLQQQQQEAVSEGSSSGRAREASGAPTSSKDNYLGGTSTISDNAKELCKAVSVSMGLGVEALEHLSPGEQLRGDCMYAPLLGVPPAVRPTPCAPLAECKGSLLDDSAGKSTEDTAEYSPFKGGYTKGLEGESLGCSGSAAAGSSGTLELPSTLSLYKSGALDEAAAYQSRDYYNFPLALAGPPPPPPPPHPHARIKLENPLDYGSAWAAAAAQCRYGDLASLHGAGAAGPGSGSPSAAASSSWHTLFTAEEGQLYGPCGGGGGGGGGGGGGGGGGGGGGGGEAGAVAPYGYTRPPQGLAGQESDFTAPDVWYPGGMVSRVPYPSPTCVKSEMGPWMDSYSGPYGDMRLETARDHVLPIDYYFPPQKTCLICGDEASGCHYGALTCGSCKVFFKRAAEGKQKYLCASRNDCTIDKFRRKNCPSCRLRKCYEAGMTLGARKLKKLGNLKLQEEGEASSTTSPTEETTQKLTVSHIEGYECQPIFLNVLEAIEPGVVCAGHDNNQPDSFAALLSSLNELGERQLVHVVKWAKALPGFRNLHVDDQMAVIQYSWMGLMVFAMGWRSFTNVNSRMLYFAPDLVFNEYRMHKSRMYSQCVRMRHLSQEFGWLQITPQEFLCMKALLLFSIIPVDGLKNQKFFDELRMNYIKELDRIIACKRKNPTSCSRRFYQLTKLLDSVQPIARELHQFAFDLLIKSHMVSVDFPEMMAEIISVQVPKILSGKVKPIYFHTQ
Experimental: Levels of cytokeratin 18 were measured as an indication of amount of epithelial cells in the xenograft samples.

PC3 cells = assay: Proliferation of PC3 cells (BrdU incorporation); format: cell-based, human; settings: 185-9-2 5 μg/ml, 3 days
Source text: LNCaP cells were employed initially for all experiments because they are well-differentiated human prostate cancer cells in which ligand-independent activation of the AR by FSK has been characterized (Nazareth et al 1996 J. Biol. Chem. 271, 19900-19907; and Sadar 1999 J. Biol. Chem. 274, 7777-7783). LNCaP cells express endogenous AR and secrete prostate-specific antigen (PSA) (Horoszewicz et al 1983 Cancer Res. 43, 1809-1818). LNCaP cells can be grown either as monolayers in cell culture or as tumors in the well-characterized xenograft model that progresses to androgen independence in castrated hosts (Sato et al 1996 J. Steroid Biochem. Mol. Biol. 58, 139-146; Gleave et al 1991 Cancer Res. 51, 3753-3761; Sato et al 1997 Cancer Res. 57, 1584-1589; and Sadar et al 2002 Mol. Cancer. Ther. 1(8), 629-637). […] Small molecules that specifically target the AR-NTD should have no effect on PC3 cells. […] Reporter specificity may be determined using several alternative reporter gene constructs. […]
The prostate gland is an androgen-dependent organ where androgens are the predominant mitogenic stimulus (Isaacs J T, Scott W W, Coffey D S., Prog Clin Biol Res. 1979; 33:133-44). […] BrdU incorporation was measured 4 days later to indicate changes in proliferation in response to androgen (FIG. 12). […]

LNCaP xenografts = assay: LNCaP subcutaneous xenografts in castrated mice; format: in vivo, NOD-SCID male mice
Experimental: Six to eight-week old male athymic SCID mice were inoculated subcutaneously in the flank region via a 27-gauge needle with a 150 μl suspension of LNCaP or PC3 human prostate cancer cells (1×10^6 cells). The inoculations took place while the animal was under isofluorane anaesthesia. The tumor take rate is approximately 75%. Mice bearing tumors of 100 mm^3 were randomly assigned to treatment groups. Castration was performed as described below. Tumor volume (formula: L×W×H×0.5236) was measured in mice bearing LNCaP subcutaneous tumors that became palpable or visible and at least 40 mm^3. The animals were monitored daily and tumors were measured every 5 days.

CC(C)(c1ccc(OCC(O)CO)cc1)c1ccc(OCC(O)CCl)cc1 (centres unmarked) [185-9-2, BADGE.HCL.H2O]
levels of AR protein in xenografts (AR): does not reduce levels of AR protein; also recorded: did not decrease levels of AR protein
proliferation of PC3 cells (BrdU incorporation) (PC3 cells): does NOT block proliferation; also recorded: not to block proliferation
size of LNCaP xenograft tumors, intratumoral injection (LNCaP xenografts; castrated mice, I.T. every 5 days, 20 mg/kg body weight, 20 mg/kg): reduced the size of the tumors; also recorded: significantly reduce the tumors
size of LNCaP xenograft tumors, intravenous injection (LNCaP xenografts; castrated mice, I.V. 50 mg/kg body weight every other day): reduced the size of the tumors
LNCaP tumor volume at the duration (end) of the experiment, intratumoral (LNCaP xenografts; castrated mice, i.t. every 5 days, five doses): 35.4±15.7 mm^3
LNCaP tumor volume within 2 weeks of i.v. injection (LNCaP xenografts; castrated mice, i.v. 50 mg/kg every other day): 64.3±29.6 mm^3
apoptosis in xenografts (TUNEL) (LNCaP xenografts; intravenous delivery, IHC): increased apoptosis
proliferation in xenografts (Ki67) (LNCaP xenografts; intravenous delivery, IHC): reduced proliferation
